Source: patent US4795754A, “3-(1H-tetrazol-5-y1)oxanilic acid and salts thereof and pharmaceutical compositions containing them” (Wakamoto Pharmaceutical Co., Ltd., priority 1986, dated 1989)
Like-named read-outs stand apart in the source and are kept apart here.

Experiments:
[1] = system: rats suffering from experimental allergic rhinitis; test: Nasal mucus secretion inhibitory effect, experimental allergic rhinitis (Test 3); format: in vivo, Wistar rats; details: brilliant blue in nasal perfusate, average of 5
Description: This test was effected to examine the nasal mucus secretion inhibitory effect of the compounds according to the present invention on the rats suffering from experimental allergic rhinitis.
(§1) Wistar rats were passively sensitized by subcutaneously injecting anti-Cryptomeria Japonica-As serum of rat. After anesthetizing the rat with pentobarbital sodium, they were fixed while lying them on their back and the cervixes thereof were subjected to median incision. A polyethylene tube having an outer diameter of 1 mm was inserted into the internal nares of each rat through the incised portion of trachea, one end thereof was connected to a perfusion pump and sterilized physiologic saline warmed at 37° C. was perfused therethrough at a flow rate of 0.25 ml/min.
Then, 0.5 ml/100 g body weight of 4% brilliant blue was injected into the rat through the caudal vein, then the perfusate was recovered for 10 minutes and the concentration of the dye was determined which was regarded as the Ag (-) value of the control. 1 ml of the antigen extracted from pollen of Japanese cedar (1 micro liter per ml) was sprayed in both internal nares by means of an atomizer for internal nares, the antigen remaining in the internal nares was washed out with physiologic saline and the perfusate was then recovered for 30 minutes and the concentration of the dye was determined to estimate Ag (+) value of the control.
The compound to be tested were dissolved in 0.15 M phosphate buffer so as to form a solution of a desired concentration. Each of the solutions thus prepared was sprayed in both internal nares in an amound of 0.5 ml/100g body weight at the time of 5 minutes before the spray of the antigen and the concentration of the dye was determined on each sample. In this connection, the measurement of the dye concentration was effected according to the spectrophotometric method developed by M. Kojima et al. (Allergy, 1986, Vol. 35, pp. 180-187).

[2] = system: allergic conjunctivitis of guinea pigs; test: Allergic conjunctivitis, visual observation of inflammatory reaction of the eye (Test 4); format: in vivo, Hartley guinea pigs; details: MTCC 10^-3 g/ml, DSCG 2×10^-2 g/ml, dropped on the eye after antigen
Protocol: (§2) This test was carried out to estimate the therapeutic effect of the compounds according to the present invention on the allergic conjunctivitis of guinea pigs.
(§3) Hartley guinea pigs were passively sensitized by intravenously injecting 1 ml of anti-DNP-As serum. After 8 days, an antigen solution (DNP-BSA: 2.5 mg/ml) was dropped on the sinistral eye once a minute over 10 minutes, then the lacrimal fluid was collected with filter paper over 10 minutes while the inflammatory reaction of the eye was visually observed during the collection of the lacrimal fluid. At 10 minutes after the completion of the dropping of the antigen solution, the compounds to be examined were dropped on the eye once a minute over 10 minutes and thereafter the collection of the lacrimal fluid and the visual observation of the inflammatory reaction of the eye were likewise effected. Then, the amount of histamine present in the collected lacrimal fluid was determined according to the Komatsu's method (Michitoshi KOMATSU, Allergy, 1978, Vol. 27, pp. 67-74).
(§4) In addition, the concentration of MTCC used was 10^-3 g/ml and that of DSCG was 2×10^-2 g/ml.

[3] = system: metachromatic cells in nasal mucus; test: Degranulation inhibitory effect on metachromatic cells in nasal mucus, experimental allergic rhinitis (Test 2); format: in vivo, Wistar rats; details: intranasal 0.5 ml/100 g, 5 minutes before antigen, average of 5
Protocol: This test was carried out to examine the degranulation inhibitory effect of the compounds of the present invention on the metachromatic cells in nasal mucus originated from a rat suffering from experimental allergic rhinitis.
as §1, with “Japonica-Ascaris” for “Japonica-As”, “ml/min. 1 ml of the antigen extracted from pollen of Japanese cedar (10 micro liter per ml) was sprayed in both internal nares by means of an atomizer for internal nares and the perfusate delivered from the internal nares was recovered for 20 minutes. The number of degranulated cells per 100 metachromatic cells present in the recovered samples were scored and the value was regarded as that of the control (Nc).” for “ml/min.”
The compound to be tested were dissolved in 0.15M phosphate buffer so as to obtain a solution of a desired concentration, each solution was administered through both of the interanal nares in an amount of 0.5 ml/100 g body weight, at a time 5 minutes before the spray of the antigen and the number of degranulated cells (Nt) was scored according to the same manner as described above. The rate of inhibitory effect on the degranulation (Rd) was estimated from the following relation: [formula] Each experimental results is the average of 5 measurements.

[4] = system: allergic conjunctivitis of guinea pigs; test: Allergic conjunctivitis, histamine content in lacrimal fluid (Test 4); format: in vivo, Hartley guinea pigs
Protocol: as §2, §3, §4

[5] = Japanese Journal of Pharmacology, 1982, Vol. 32, pp. 689-697; cited from earlier work
[6] = Water solubility / hydrophilicity (statement in words); format: physicochemical
[7] = Acute toxicity test, rat (Test 5); format: in vivo; details: rat, in vivo, Male, 14 days observation
Protocol: (§5) MTCC was administered to ddY Mice (body weight 20 to 23 g; 10 animals per test group) and Wistar rats (body weight 110 to 130 g; 10 animals per test group) through intravenous and oral routes and it was also administered to Beagle dogs (7 months old; 3 animals per test group) through oral route.
(§6) MTCC was administered to rats and mice in the form of a solution thereof in 0.1 M phosphate buffer in the case of intravenous administration and in the form of a suspension in 0.5% CMC-Na in the case of oral administration. While it was orally administered to dogs in the form of a capsule filled with the original powder.

Rat = test: Acute toxicity test, rat (Test 5); format: in vivo; details: Female, 14 days observation
Protocol: as §5, §6

[8] = Acute toxicity test, dog (Test 5); format: in vivo; details: dog, in vivo, po; Male, p.o. (capsule); 14 days observation
Protocol: as §5, §6

Dog = test: Acute toxicity test, dog (Test 5); format: in vivo; details: Female, p.o. (capsule); 14 days observation
Protocol: as §5, §6

Mouse = test: Acute toxicity test, mouse (Test 5); format: in vivo; details: Female, 14 days observation
Protocol: as §5, §6

[9] = Acute toxicity test, mouse (Test 5); format: in vivo; details: mouse, in vivo, Male, 14 days observation
Protocol: as §5, §6

[10] = After Dropping of Antigen (before compound)
[11] = After Dropping of Compound, MTCC 10^-3 g/ml, DSCG 2×10^-2 g/ml

Compound | Dye Concentration ([1]; Concn. 10^-4 g/ml) [micro gr./ml] | Dye Concentration ([1]; Concn. 10^-5 g/ml) [micro gr./ml] | Dye Concentration ([1]; Concn. 10^-6 g/ml) [micro gr./ml] | Dye Concentration ([1]; Concn. 10^-7 g/ml) [micro gr./ml] | Dye Concentration ([1]; Concn. 10^-8 g/ml) [micro gr./ml] | Therapeutic effect on swelling and congestion of the conjunctiva (visual observation) [2] | Rate of Inhibition of Degranulation Rd (%) ([3]; Concn. 10^-4 g/ml) | Rate of Inhibition of Degranulation Rd (%) ([3]; Concn. 10^-5 g/ml) | Rate of Inhibition of Degranulation Rd (%) ([3]; Concn. 10^-6 g/ml) | Rate of Inhibition of Degranulation Rd (%) ([3]; Concn. 10^-7 g/ml) | Rate of Inhibition of Degranulation Rd (%) ([3]; Concn. 10^-8 g/ml) | Histamine Content in Lacrimal Fluid [4, 10] [ng] | Histamine Content in Lacrimal Fluid [4, 11] [ng] | further results
O=C(O)c1cc(=O)c2c(OCC(O)COc3cccc4oc(C(=O)O)cc(=O)c34)cccc2o1 [DSCG, Disodium Chromoglycate, reference compound] | 0.65 | 0.89 | 1.01 | 1.44 | 1.77 | relatively low therapeutic effect | 90.3 | 71.5 | 39.4 | 8.1 | -1.7 | 6.7 | 6.4 | –
CCCCOC(=O)C(=O)Nc1cccc(-c2nnn[nH]2)c1 [MTB, Butyl 3(1H--tetrazol5-yl)oxanilate] | – | – | – | – | – | – | – | – | – | – | – | – | – | Water solubility (in words) [5]: hydrophobic or less soluble in water
O=C(O)C(=O)Nc1cccc(-c2nnn[nH]2)c1 [MTCC, 3-(1H-tetrazol-5-yl)oxanilic acid] | 0.64 | 0.85 | 0.99 | 1.37 | 1.74 | excellent therapeutic effect | 94.3 | 75.1 | 33.0 | 15.0 | -1.4 | 6.3 | 2.4 | Water solubility (in words) [6]: hydrophyilic or soluble in water; LD50 at 336 h ([7]; iv): > 180 mg/kg; LD50 at 336 h ([7]; po): > 2000 mg/kg; Acute Toxicity LD50 (Rat; i.v.): > 180 mg/kg; Acute Toxicity LD50 (Rat; p.o.): > 2000 mg/kg; LD50 at 336 h [8]: > 2000 mg/kg; Acute Toxicity LD50 (Dog): > 2000 mg/kg; Acute Toxicity LD50 (Mouse; i.v.): > 225 mg/kg; Acute Toxicity LD50 (Mouse; p.o.): > 2000 mg/kg; LD50 at 336 h ([9]; iv): > 225 mg/kg; LD50 at 336 h ([9]; po): > 2000 mg/kg; Histamine content in the lacrimal fluid (in words) ([4]; by the administration of MTCC, 10^-3 g/ml): substantially reduced
